Measured values published in patent publication US10947575B2, “Rapid antimicrobial susceptibility test, based on an analysis of changes in morphology and growth pattern of a microbial cell under different concentrations of various antimicrobial agents, and automated cell image analysis system therefor” (priority 2014, dated 2021).

What was measured:
E. coli ATCC 25922 [1] = assay: AST by analysis of changes in morphology and growth pattern of a microbial cell (MAC 2.0 chip imaging); assay type: cell-based; settings: Normal / Filament / Swelling
Excerpt: (§1) Four reference strains (E. coli ATCC 25922, S. aureus ATCC 29213, P. aeruginosa ATCC 27853, and E. faecalis ATCC 29212) were used as objective strains, in accordance with Clinical and Laboratory Standards Institute (CLSI) guidelines. […] The bacterial cell in MAC 2.0TM (QuantaMatrix) was monitored through a S Plan Fluor ELWD 60X (NA 1.49) lens of an inverted optical microscope (Eclipse Ti-Nikon, IX71-Olympus) provided in a heating system, and then, an electron multiplying CCD camera (QuantEM:512SC Photometrics for Eclipse Ti) was used to obtain images of a region where is adjacent to an interface between the agarose well of MAC 2.0TM and the antimicrobial agents well, over time.

E. faecalis ATCC 29212 [2] = assay: as above; assay type: cell-based; settings: RRG = relatively rapid growth, RSG = relatively slow growth
Excerpt: as §1

P. aeruginosa ATCC 27853 [3] = assay: as above; assay type: cell-based; settings: Normal / Filament / Swelling
Excerpt: as §1

S. aureus ATCC 29213 [4] = assay: as above; assay type: cell-based; settings: RRG = relatively rapid growth, RSG = relatively slow growth
Excerpt: as §1

E. coli ATCC 25922 [5] = assay: MIC by the proposed method (SCMA), from morphology and growth pattern changes; assay type: cell-based; settings: time to result 3 hr, unit assumed
Excerpt: (§2) The bacterial cell in MAC 2.0™ (QuantaMatrix) was monitored through a S Plan Fluor ELWD 60X (NA 1.49) lens of an inverted optical microscope (Eclipse Ti—Nikon, IX71—Olympus) provided in a heating system, and then, an electron multiplying CCD camera (QuantEM:512SC Photometrics for Eclipse Ti) was used to obtain images of a region where is adjacent to an interface between the agarose well of MAC 2.0™ and the antimicrobial agents well, over time. […] In the AST method according to the inventive concept, minimal inhibitory concentration (MIC) was measured using the changes in morphology and growth pattern of the four reference strains (i.e., E. coli ATCC 25922, S. aureus ATCC 29213, P. aeruginosa ATCC 27853, and E. faecalis ATCC 29212) and was compared with MIC quality control (QC) per CLSI guidelines.

E. faecalis ATCC 29212 [6] = assay: as above; assay type: cell-based; settings: time to result 4 hr
Excerpt: as §2

P. aeruginosa ATCC 27853 [7] = assay: as above; assay type: cell-based; settings: time to result 3 hr
Excerpt: as §2

S. aureus ATCC 29213 [8] = assay: as above; assay type: cell-based; settings: time to result 4 hr
Excerpt: as §2

E. coli ATCC 25922 [9] = settings: time to result 16~20 hr; cited from earlier work
P. aeruginosa ATCC 27853 [10] = settings: time to result 16~20 hr; cited from earlier work
S. aureus ATCC 29213 [11] = settings: time to result 16~20 hr; cited from earlier work
E. faecalis ATCC 29212 [12] = settings: time to result 16~20 hr, unit assumed; cited from earlier work

Gentamicin
Criteria (change in morphology and growth pattern) (E. coli ATCC 25922 [1]): Normal
Criteria (change in morphology and growth pattern) (E. faecalis ATCC 29212 [2]): Normal
Criteria (change in morphology and growth pattern) (P. aeruginosa ATCC 27853 [3]): Normal growth
Criteria (change in morphology and growth pattern) (S. aureus ATCC 29213 [4]): Normal growth
SCMA Results (MIC) (E. coli ATCC 25922 [5]): 0.25 µg/mL
SCMA Results (MIC) (E. faecalis ATCC 29212 [6]): ≤ 500 µg/mL
SCMA Results (MIC) (P. aeruginosa ATCC 27853 [7]): 0.5~1
SCMA Results (MIC) (S. aureus ATCC 29213 [8]): 0.25~0.5
CLSI QC range (MIC) (E. coli ATCC 25922 [9]): 0.25~1
CLSI QC range (MIC) (P. aeruginosa ATCC 27853 [10]): 0.5~2
CLSI QC range (MIC) (S. aureus ATCC 29213 [11]): 0.12~1
CLSI QC range (MIC) (E. faecalis ATCC 29212 [12]): ≤ 500 µg/mL
